Structures can show the parent of a compound that is named as a salt.
Columns and labels:
[1] = test system: ID188 patient-derived PDAC 2D line (pre-FOLFIRINOX); assay: normalised area under dose-response curve (viability relative to DMSO, 7 doses up to 10 µM) (fraction (AUC)); higher = less sensitive (more viability retained); conditions: 72 h; top dose: 10 µM
Method in brief: (§1)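 Patient-derived 2D PDAC cells grown out from organoids were seeded robotically at 1,500–3,000 cells/well in 96-well plates and incubated overnight at 37°C, 5% CO2. SelleckChem library compounds were added at seven concentrations (3-fold dilution series, highest 10 µM) for 72 h. CellTiter-Glo luminescence was read after 10 min. Viability was normalised to the DMSO control, and area under the dose-response curve was derived with the GRmetrics R package.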

[2] = test system: ID211 patient-derived PDAC 2D line (post-FOLFIRINOX); assay: as above; conditions: 72 h; top dose: 10 µM
Method in brief: as §1

SMILES	normalised area under dose-response curve [1]	normalised area under dose-response curve [2]
CC(Nc1nc(N2CCCC2)nc2ccccc12)c1ccccc1 (centres undefined) [Importazole]	0.956	0.849
O=C1Nc2ccccc2/C1=C1/Nc2ccccc2C1=O [Indirubin]	0.791	0.801
NC(=O)c1ccc(I)c([N+](=O)[O-])c1 [Iniparib (BSI-201)]	0.939	0.952
CCc1c2c(nc3ccc(OC(=O)N4CCC(N5CCCCC5)CC4)cc13)-c1cc3c(c(=O)n1C2)COC(=O)[C@]3(O)CC [Irinotecan HCl Trihydrate]	0.847	0.807
CC(C)C[C@H](NC(=O)CNC(=O)c1cc(Cl)ccc1Cl)B1OC(=O)C(CC(=O)O)(CC(=O)O)O1 [Ixazomib Citrate (MLN9708)]	0.425	0.48
Clc1ccc(NN=C(c2ccccc2)c2ccccn2)nc1 [JIB-04]	0.641	0.662
Cc1cc(NC(=O)c2cccc(NC(=O)/C=C/CN(C)C)c2)ccc1Nc1nccc(-c2cccnc2)n1 [JNK-IN-8]	0.874	0.842
Cc1ccc(NCCCc2ccccc2)c(N)c1 [JSH-23]	0.97	0.79
O=C(Cc1ccc(-c2ccc(OCCN3CCOCC3)cc2)cn1)NCc1ccccc1 [KX2-391]	0.624	0.508
O=C(O)CCN1C(=O)/C(=C/c2ccc(-c3ccc([N+](=O)[O-])cc3)o2)SC1=S [KYA1797K]	0.976	0.835
CN[C@@H](C)C(=O)N[C@H](C(=O)N1CCC[C@H]1c1nc(C(=O)c2ccc(F)cc2)cs1)C1CCCCC1 [LCL161]	0.585	0.922
CN1CCN(c2ccc(-c3ccncc3-c3cc(F)c(O)c(F)c3)cc2)CC1 [LJH685]	0.943	0.83
Cc1cn(CCN2CCN(c3ccccc3-c3cc(C#N)cc(C(=O)NCCCN4CCCC4)c3)CC2)c2ccccc12 [LLY-507]	0.859	0.842
NCCCC[C@H](NC(=O)[C@@H](NC(=O)[C@H](Cc1c[nH]c2ccccc12)NC(=O)[C@H](CCCCN)NC(=O)[C@H](CCCCN)NC(=O)[C@H](Cc1c[nH]c2ccccc12)NC(=O)[C@H](Cc1c[nH]c2ccccc12)NC(=O)[C@H](CCCCN)NC(=O)[C@@H](N)CCCCN)C(c1ccccc1)c1ccccc1)C(N)=O [LTX-315]	0.943	0.804
Cc1ccc(F)c(NC(=O)Nc2ccc(-c3cccc4[nH]nc(N)c34)cc2)c1 [Linifanib (ABT-869)]	0.889	0.814
C[C@]1(O)C[C@@H](c2nc(-c3ccc4ccc(-c5ccccc5)nc4c3)c3c(N)nccn32)C1 [Linsitinib (OSI-906)]	0.84	0.593
O=C(O)c1nn(Cc2ccc(Cl)cc2Cl)c2ccccc12 [Lonidamine]	0.934	0.87
CCNC(=O)c1noc(-c2cc(C(C)C)c(O)cc2O)c1-c1ccc(CN2CCOCC2)cc1 [Luminespib (AUY-922, NVP-AUY922)]	0.485	0.345
O=c1cc(-c2ccc(O)c(O)c2)oc2cc(O)cc(O)c12 [Luteolin]	0.82	0.754
CN(CCNc1ccnc2cc(Cl)ccc12)CCNc1ccnc2cc(Cl)ccc12 [Lys05]	0.921	0.796
CCC1C/C(=C\c2cccnc2)C(=O)/C(=C/c2cccnc2)C1 (centres undefined) [MCB-613]	0.764	0.778
COCCOc1nc(-c2ccc(Cl)c(Cl)c2)n(-c2ccc(NC(=O)CCl)cc2)n1 [MI-2 (MALT1 inhibitor)]	0.897	0.573
Cc1c(CN2CCC(Nc3ncnc4sc(CC(F)(F)F)cc34)CC2)ccc2[nH]c(C#N)cc12 [MI-463]	0.713	0.825
Cc1c(CN2CCC(Nc3ncnc4sc(CC(F)(F)F)cc34)CC2)ccc2c1cc(C#N)n2Cc1cn[nH]c1 [MI-503]	0.871	0.805
O=C(O)CC[C@H]1CC[C@@](c2cc(F)ccc2F)(S(=O)(=O)c2ccc(Cl)cc2)CC1 [MK-0752]	0.888	0.83
CC(C)c1ccc2c(c1)c(SC(C)(C)C)c(CC(C)(C)C(=O)O)n2Cc1ccc(Cl)cc1 [MK-886 (L-663,536)]	0.989	0.843

SMILES	normalised area under dose-response curve [1]	normalised area under dose-response curve [2]
NC1(c2ccc(-c3nc4ccn5c(=O)[nH]nc5c4cc3-c3ccccc3)cc2)CCC1 [MK-2206 2HCl]	0.844	0.672
CN(C(=O)CNC(=O)/C=C/c1cccc(Cl)c1)C1CCS(=O)(=O)CC1 [ML264]	0.796	0.894
Cc1cnc(-c2ccccc2C(C)C)nc1NCc1ccc(-n2ccnn2)cc1 [ML323]	0.932	0.871
CN(C)CCCNC(=O)c1ccc(-c2cc(O)c3ncccc3c2)cc1 [ML324]	0.953	0.774
O=C(CCNC(=O)c1ccc(OC(F)(F)F)cc1)N[C@@H]1CCCc2ccccc21 [ML390]	0.983	0.788
C[C@@H](NC(=O)c1ncnc(N)c1Cl)c1ncc(C(=O)Nc2cc(C(F)(F)F)c(Cl)cn2)s1 [MLN2480]	0.905	0.818
CC(C)Oc1ccc(-c2c[nH]cc2CN(C)CCN)cc1 [MS023]	0.842	0.634
Cc1cc(/N=N/c2ccc(S(=O)(=O)Nc3ccccn3)cc2)c(N)cc1O [MS436]	0.977	0.957
Cc1ccc(NC(=O)c2ccc(CN3CCN(C)CC3)cc2)cc1Nc1nc(-c2cccnc2)cs1 [Masitinib (AB1010)]	0.959	0.83
COc1cc(-n2c(=S)[nH]c3ccccc3c2=O)c(Cl)cc1Cl [Mdivi-1]	0.885	0.957
N[C@@H](Cc1ccc(N(CCCl)CCCl)cc1)C(=O)O [Melphalan]	0.87	0.853
CCS(=O)(=O)Nc1ccc(Oc2ccc(F)cc2F)c(-c2cn(C)c(=O)c3[nH]ccc23)c1 [Mivebresib(ABBV-075)]	0.666	0.538
CCCN(CCC)C(=O)C1=Cc2ccc(-c3ccc(C(=O)N4CCCC4)cc3)cc2N=C(N)C1 [Motolimod (VTX-2337)]	0.969	0.822
FC(F)(F)c1ccc(/C=C/c2nc(COc3ccc(CCCCn4ccnn4)cc3)co2)cc1 [Mubritinib (TAK 165)]	0.735	0.784
CC(C)CCn1c(CN2CCN(C(=O)C3CC3)CC2)nc2c1c(=O)n(C)c(=O)n2C [NCT-501]	0.965	0.822
Cc1cc(C)nc(NC(=S)N2CCN(Cc3ccc(C(F)(F)F)cc3)CC2)c1 [NCT-503]	0.954	0.909
Cc1cc(OCc2nnc(SC3CCCC3)n2-c2cccnc2)ccc1-c1ccc(S(C)(=O)=O)cc1 [NMS-873]	0.8	0.406
Oc1cc(CNC(=S)/C=C/c2cc(O)c(O)c(Br)c2)cc(O)c1O [NT157]	0.943	0.886
O=c1cc(N2CCOCC2)oc2c1ccc1ccccc12 [NU7026]	0.998	0.846
Cc1ccc(C(=O)Nc2cccc(C(F)(F)F)c2)cc1Nc1nc(-c2cccnc2)nc2c1cnn2C [NVP-BHG712]	0.869	0.831
COc1cc2c(cc1OC(C)C)[C@H](c1ccc(Cl)cc1)N(c1ccc(N(C)C[C@H]3CC[C@H](N4CCN(C)C(=O)C4)CC3)cc1)C(=O)C2 [NVP-CGM097]	0.988	0.72
CC(=O)c1cc2c(o1)C(=O)c1ccccc1C2=O [Napabucasin]	0.65	0.708
CCOc1cc2ncc(C#N)c(Nc3ccc(OCc4ccccn4)c(Cl)c3)c2cc1NC(=O)/C=C/CN(C)C [Neratinib (HKI-272)]	0.893	0.638
COC(=O)c1ccc2c(c1)NC(=O)/C2=C(\Nc1ccc(N(C)C(=O)CN2CCN(C)CC2)cc1)c1ccccc1 [Nintedanib (BIBF 1120)]	0.915	0.86
COC(=O)c1ccc2c(C(=Nc3ccc(N(C)C(=O)CN4CCN(C)CC4)cc3)c3ccccc3)c(O)[nH]c2c1 [Nintedanib Ethanesulfonate Salt]	0.833	0.791
COc1ccc(C2=N[C@@H](c3ccc(Cl)cc3)[C@@H](c3ccc(Cl)cc3)N2C(=O)N2CCNC(=O)C2)c(OC(C)C)c1 [Nutlin-3]	0.97	0.82

From the supplement of paper PMC8988213
